# Measurements: patent US9714249B2 (Novartis AG, priority 2013, dated 2017)
# Key:
# [1] = tested on: MV-4-11 cells; experiment: Cell growth inhibition assay (CellTiter-Glo), MV-4-11; format: cell-based, human; settings: MV-4-11, 4 days; for GI50: Homo sapiens, MV4-11, 96 h, half-maximal growth inhibition; for MV-4-11 TGI: total growth inhibition
# Experimental: (§1) The human leukemia cell lines MV-4-11, THP-1 and K-562 were employed to characterize the effect of BET inhibitors on cellular proliferation and viability. Cells were obtained from the American Type Culture Collection (ATCC) and cultured at 37° C. in a humidified 5% CO2 incubator in the following media: MV-4-11: DMEM high glucose (Animed #1-26F01-I), 10% FCS (Animed #2-01F26-I), 4 mM L-Glutamine (Animed #5-10K50), 1 mM Sodium Pyruvate (Animed # G03625P), 1× Penicillin-Streptomycin (Animed # F12478P); K-562: Iscove's MEM (Animed #1-28F16-I), 10% FCS (Animed #2-01F26-I), 4 mM L-Glutamine (Animed #5-10K50), 1× Penicillin-Streptomycin (Animed # F12478P); THP-1: RPMI-1640 (Animed #1-41F01-I), 10% FCS (Animed #2-01F26-I), 2 mM L-Glutamine (Animed #5-10K50), 10 mM HEPES (Animed #5-31F100), 1 mM Sodium Pyruvate (Animed # G03625P), 1× Penicillin-Streptomycin (Animed # F12478P). The AML lines MV-4-11 and THP-1 are very sensitive to BET inhibitors and show massive cell death upon BET inhibition (Zuber et al., Nature, 478 (2011), 524-8). Compound-mediated suppression of cell proliferation/viability was assessed by quantification of cellular ATP levels using the CellTiter-Glo (CTG) reagent (Promega). Briefly, cells were seeded in 20 μl fresh medium into 384-well plates, followed by addition of 5 μl medium containing compound dilutions at 5-fold their final intended concentration. Dose-response effects were assessed by 3-fold serial dilutions of the test compound, starting at 10 μM. Following incubation of the cells for 4 days at 37° C. and 5% CO2, the effect of inhibitors on cell viability was quantified following addition of 20 μl CTG and luminescence quantification (integration time: 100 ms) as per vendor manual, using a correspondingly equipped Tecan M200 multi-mode platereader (TECAN, Switzerland). For data analysis, the assay background value determined in wells containing medium, but no cells, was subtracted from all data points. To enable differentiation of cytotoxic from cytostatic compounds, the number of viable cells is assessed relative to that observed at the time of compound addition using a separate cell plate (day 0). The effect of a particular test compound concentration on cell proliferation/viability is expressed as percentage of the background- and day 0-corrected luminescence reading obtained for cells treated with vehicle only (DMSO, 0.1% final concentration), which is set as 100%, whereas that luminescence reading for wells containing medium is set as −100%. Compound concentrations leading to half-maximal (1050) and total growth inhibition (TGI) were determined using standard four parameter curve fitting.
# [2] = tested on: K-562 cells; experiment: Cell growth inhibition assay (CellTiter-Glo), K-562; format: cell-based, human; settings: K-562, 4 days; for GI50: Homo sapiens, K562, 96 h, half-maximal growth inhibition; for K-562 TGI: total growth inhibition
# Experimental: as §1
# [3] = target: BRD3 (His-Brd3(20-477)) (Homo sapiens (Human), UniProt Q15059); experiment: TR-FRET in-vitro binding assay for BRD3; settings: acetyl-histone H4 peptide
# Experimental: (§2) All assays were performed in 384 well microtiter plates. Each assay plate contained 8-point serial dilutions for 40 test compounds, plus 16 high- and 16 low controls. Liquid handling and incubation steps were done on an Innovadyne Nanodrop Express equipped with a robotic arm (Thermo CatX, Perkin Elmer/Caliper Twister II) and an incubator (Liconic STX40, Thermo Cytomat 2C450). The assay plates were prepared by addition of 50 nl per well of compound solution in 90% DMSO HummingBird nanodispenser (Zinsser Analytic). The assay was started by stepwise addition of 4.5 μl per well of bromo domain protein (50 mM HEPES, pH 7.5, 0.005% Tween20, 0.1% BSA, 50 mM NaCl, 45 nM His-Brd2(60-472) or 45 nM His-Brd3(20-477) or 45 nM His-Brd4(44-477) all proteins produced in-house) and 4.5 μl per well of peptide solution (50 mM HEPES, pH 7.5, 0.005% Tween20, 0.1% BSA, 50 mM NaCl, 60 nM acetyl-histone H4 (AcK 5, 8, 12, 16) (Biosyntan GmbH)). Reactions were incubated at 30° C. for 35 minutes. Subsequently 4.5 μl per well detection mix (50 mM HEPES, pH 7.5, 0.005% Tween20, 0.1% BSA, 50 mM NaCl, 3 nM Eu-labeled anti-His6 antibody, 21 nM streptavidin-allophycocyanin) were added. After 35 minutes incubation at 30° C., plates were measured in a Perkin Elmer EnVision multilabel reader. Concentrations causing 50% inhibition (1050) values were determined from percent inhibition values at different compound concentrations by non-linear regression analysis.
# (§3) Test compounds were dissolved in DMSO (10 mM) and transferred into 1.4 mL flat bottom or V-shaped Matrix tubes carrying a unique 2D matrix. The stock solutions were stored at […] if not used immediately. For the test procedure the vials were defrosted and identified by a scanner whereby a working sheet was generated that guided the subsequent working steps. Compound dilutions were made in 96 well plates. This format enabled the assay of maximally 40 individual test compounds at 8 concentrations (single points) including 4 reference compounds, if desired (known BET inhibitors from the prior art, for this and other assays of the type disclosed herein). The dilution protocol included the production of “pre-dilution plates”, “master plates” and “assay plates”.
# (§4) Pre-dilution plates: 96 polypropylene well plates were used as pre-dilution plates. A total of 4 pre-dilution plates were prepared including 10 test compounds each on the plate positions A1-A10, one standard compound at A11 and one DMSO control at A12. All dilution steps were done on a HamiltonSTAR robot. Master plates: 30 μL of individual compound dilutions including standard compound and controls of the 4 “pre-dilution plates” were transferred into a 384 “master plate” including the following concentrations 10000, 3003, 1000, 300, 100, 30, 10 and 3 μM, respectively in 90% of DMSO. Assay plates: Identical “assay plates” were then prepared by pipetting 50 nL each of compound dilutions of the “master plates” into 384-well “assay plates” by means of a HummingBird 384-channel dispenser. These plates were used directly for the assay which was performed in a total volume of 13.55 μL. This led to a final compound concentration of 37, 11, 3.7, 1.1, 0.37, 0.11, 0.037 and 0.011 μM and a final DMSO concentration of 0.37% in the assay. Cell Growth Inhibition Assay
# [4] = tested on: THP-1 cells; experiment: Cell growth inhibition assay (CellTiter-Glo), THP-1; format: cell-based, human; settings: THP-1, 4 days; for GI50: Homo sapiens, 96 h, half-maximal growth inhibition; for THP-1 TGI: total growth inhibition
# Experimental: as §1
# [5] = target: CREBBP bromodomain (His-CREBBP (1081-1197)) (Homo sapiens (Human), UniProt Q92793); experiment: AlphaScreen in-vitro binding assay for CREBBP; settings: acetyl-histone H4 peptide
# Experimental: In order to assess bromodomain selectivity, we set up a binding assay using the bromodomain encoded by the CREBBP gene. […] Reactions were incubated at 30° C. for 35 minutes. Subsequently 4.5 μl per well detection mix (50 mM HEPES, pH 7.5, 0.005% Tween20, 0.02% BSA, 150 mM NaCl, 45 μg/ml Ni-chelate acceptor beads, 45 μg/ml streptavidin-donor beads) (Perkin Elmer)) were added. After 60 minutes incubation at room temperature, plates were measured in a Perkin Elmer EnVision multilabel reader. IC50 values were determined from percent inhibition values at different compound concentrations by non-linear regression analysis.
# as §3
# Pre-dilution plates: 96 polypropylene well plates were used as pre-dilution plates. A total of 4 pre-dilution plates were prepared including 10 test compounds each on the plate positions A1-A10, one standard compound at A11 and one DMSO control at A12. All dilution steps were done on a HamiltonSTAR robot. […] These plates were used directly for the assay which was performed in a total volume of 13.55 μL. […] Cell Growth Inhibition Assay
# [6] = target: BRD4-NUT-fusion (Homo sapiens (Human), UniProt O60885+Q86Y26); experiment: Nut-foci formation assay (HCS) in HCC2494 NUT midline carcinoma cells; format: cell-based; settings: 24 hours, nuclear BRD4-NUT foci, immunofluorescence
# Experimental: Compound-mediated inhibition of BRD4 activity was monitored by quantification of the number and intensity of nuclear BRD4-NUT foci using automated immunofluorescence microscopy. Briefly, 5000 cells in 20 μl fresh medium were seeded into Poly-D-Lysine-precoated 384-well plates and incubated overnight at 37° C. and 5% CO2, followed by addition of 5 μl medium containing compound dilutions at 5-fold their final intended concentration. Dose-response effects were assessed by 3-fold serial dilutions of the test compound, starting at 10 μM. […] Assay plates were imaged using the appropriate filter sets on the Cellomics VTi automated fluorescence microscopy platform (ThermoFisher Scientific) and the population average of the number of NUT-foci per nucleus is quantified using the Cellomics Spot Detection BioApplication image analysis algorithm (ThermoFisher Scientific). The effect of a particular test compound concentration on NUT-foci number and intensity is expressed as percentage of the value obtained for cells treated with vehicle only (DMSO, 0.1% final concentration), which was set as 100.
# [7] = target: BRD2 (His-Brd2(60-472)) (Homo sapiens (Human), UniProt P25440); experiment: TR-FRET in-vitro binding assay for BRD2; settings: acetyl-histone H4 peptide
# Experimental: as §2, §3, §4
# Chain of BRD3 (His-Brd3(20-477)) (Q15059 20-477, species assumed): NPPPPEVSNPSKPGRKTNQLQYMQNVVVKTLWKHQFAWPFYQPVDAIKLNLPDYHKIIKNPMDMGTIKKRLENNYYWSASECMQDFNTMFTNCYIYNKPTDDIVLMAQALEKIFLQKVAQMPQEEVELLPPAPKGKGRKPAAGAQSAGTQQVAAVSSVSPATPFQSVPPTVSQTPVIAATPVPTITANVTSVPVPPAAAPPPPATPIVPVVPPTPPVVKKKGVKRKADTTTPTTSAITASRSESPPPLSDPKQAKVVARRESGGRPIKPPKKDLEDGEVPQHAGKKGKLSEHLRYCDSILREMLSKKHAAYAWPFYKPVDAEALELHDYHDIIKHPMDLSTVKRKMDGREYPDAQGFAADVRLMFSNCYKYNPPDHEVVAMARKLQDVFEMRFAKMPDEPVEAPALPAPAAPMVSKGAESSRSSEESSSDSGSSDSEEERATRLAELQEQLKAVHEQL
# Chain of CREBBP bromodomain (His-CREBBP (1081-1197)) (Q92793 1081-1197): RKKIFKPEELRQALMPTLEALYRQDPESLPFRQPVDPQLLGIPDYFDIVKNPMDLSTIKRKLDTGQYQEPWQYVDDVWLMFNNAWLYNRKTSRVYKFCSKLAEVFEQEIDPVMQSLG
# Chain of BRD2 (His-Brd2(60-472)) (P25440 60-472, species assumed): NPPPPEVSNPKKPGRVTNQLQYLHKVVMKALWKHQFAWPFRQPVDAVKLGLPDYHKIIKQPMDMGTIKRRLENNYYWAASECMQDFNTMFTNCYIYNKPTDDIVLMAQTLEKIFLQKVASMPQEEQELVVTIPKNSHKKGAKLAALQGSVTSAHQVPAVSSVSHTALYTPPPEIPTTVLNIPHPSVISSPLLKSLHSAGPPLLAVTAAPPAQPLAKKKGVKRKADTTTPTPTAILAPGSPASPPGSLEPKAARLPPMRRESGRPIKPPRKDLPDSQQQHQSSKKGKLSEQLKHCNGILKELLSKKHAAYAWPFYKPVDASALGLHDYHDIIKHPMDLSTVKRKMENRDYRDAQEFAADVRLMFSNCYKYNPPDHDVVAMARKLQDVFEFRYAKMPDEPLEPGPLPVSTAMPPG
SMILES,GI50 [1] [nM],GI50 [2] [nM],IC50 [3] [nM],GI50 [4] [nM],IC50 [5] [nM],IC50 [7] [nM],MV-4-11 TGI [1] [nM],K-562 TGI [2] [nM],THP-1 TGI [4] [nM],IC50 [6] [nM]
"Cc1[nH]nc2c1C(=O)N(c1cc(C)c(=O)n(C)c1)C2c1ccc(Cl)cc1 (stereo not drawn) [Example 9, 6-(4-chlorophenyl)-5-(1,5-dimethyl-6-oxo-1,6-dihydropyridin-3-yl)-3-methyl-5,6-dihydropyrrolo[3,4-c]pyrazol-4(2H)-one]",51,322,67,88.5,3000,–,72.1,>10000,206,–
"CCOc1ncccc1-n1nc(C)c2c1C(c1ccc(Cl)cc1)N(c1cc(C)c(=O)n(C)c1)C2=O (stereo not drawn) [Example 18a, 6-(4-chlorophenyl)-5-(1,5-dimethyl-6-oxo-1,6-dihydropyridin-3-yl)-1-(2-ethoxypyridin-3-yl)-3-methyl-5,6-dihydropyrrolo[3,4-c]pyrazol-4(1H)-one]",89.3,574,–,89.6,–,–,101,>10000,175,66.6
"COc1ncccc1-n1nc(C)c2c1C(c1ccc(Cl)cc1)N(c1cc(C)c(=O)n(C)c1)C2=O (stereo not drawn) [Example 17a, 6-(4-chlorophenyl)-5-(1,5-dimethyl-6-oxo-1,6-dihydropyridin-3-yl)-1-(2-methoxypyridin-3-yl)-3-methyl-5,6-dihydropyrrolo[3,4-c]pyrazol-4(1H)-one]",58.1,293,–,102,–,–,87.9,>10000,175,56.1

# Further lines, with some results ahead:
GI50 [1] [nM],GI50 [2] [nM],IC50 [3] [nM],GI50 [4] [nM],IC50 [5] [nM],IC50 [7] [nM],SMILES,MV-4-11 TGI [1] [nM],K-562 TGI [2] [nM],THP-1 TGI [4] [nM],IC50 [6] [nM]
27.1,112,27,56.2,1200,–,"Cc1[nH]nc2c1C(=O)N(c1cc(C)c(=O)n(C)c1)[C@@H]2c1ccc(Cl)cc1 [Example 27, (R)-6-(4-chlorophenyl)-5-(1,5-dimethyl-6-oxo-1,6-dihydropyridin-3-yl)-3-methyl-5,6-dihydropyrrolo[3,4-c]pyrazol-4(2H)-one]",49.6,>10000,115,–
25.6,170,49,59.4,3300,52,"Cc1cc(N2C(=O)c3c(C4CC4)n[nH]c3C2c2ccc(Cl)cc2)cn(C)c1=O (stereo not drawn) [Example 23, 6-(4-chlorophenyl)-3-cyclopropyl-5-(1,5-dimethyl-6-oxo-1,6-dihydropyridin-3-yl)-5,6-dihydropyrrolo[3,4-c]pyrazol-4(1H)-one]",48,>10000,128.5,–
